Results on 23 compounds are retold here after patent US20240182481A1 (Tango Therapeutics, Inc., priority 2021, published 2024).

One test deals with USP1-UAF1 (Homo sapiens, UniProt O94782). The test can be described thus: Ubiquitin Rhodamine assay for USP1-UAF1 activity. Type of test: biochemical. As for the experimental part:
Certain compounds of the disclosure were assessed for USP1-UAF1 activity in a Ubiquitin Rhodamine assay as described in Example 135.

Test [1] concerns MDA-MB-436 (BRCA1 mutant) cell line. Description: Viability assay in BRCA1 mutant cell line MDA-MB-436. Type of test: cell-based. Particulars: BRCA1 mutant MDA-MB-436, read-out: MDA-MB-436 rel IC50. An excerpt:
(§1) Table 1 also indicates IC50 values in a viability assay for a non-isogenic pair of BRCA1 mutant (column 5—MDA-MB-436) and BRCA1 WT (column 6—HCC1954) cell lines. These values indicate the effect of treatment with compound on cell survival.

For the next test, the system named is monoubiquitinated PCNA. The test can be described thus: AlphaLISA assay measuring monoubiquitinated PCNA in MDA-MB-436. Type of test: cell-based. Particulars: read-out: Alpha LISA IC50. The source says: Table 1 also indicates IC50 values for exemplary compounds in an AlphaLISA assay measuring monoubiquitinated PCNA in a BRCA1 mutant cell line (MDA-MB-436; column 7).
Background: Bead proximity is the source of the signal in Alpha formats.

Test [2] has as its system HCC1954 (BRCA1 WT) cell line. Description: Viability assay in BRCA1 WT cell line HCC1954. Type of test: cell-based. Particulars: for IC50: Homo sapiens, read-out: HCC 1954 IC50 rel IC50.
Text: as §1

Setting [3] is: Homo sapiens, MDA-MB-436, viability.

Like-named read-outs stand apart in the source and are kept apart here.

Chain of USP1-UAF1 (O94782 whole entry): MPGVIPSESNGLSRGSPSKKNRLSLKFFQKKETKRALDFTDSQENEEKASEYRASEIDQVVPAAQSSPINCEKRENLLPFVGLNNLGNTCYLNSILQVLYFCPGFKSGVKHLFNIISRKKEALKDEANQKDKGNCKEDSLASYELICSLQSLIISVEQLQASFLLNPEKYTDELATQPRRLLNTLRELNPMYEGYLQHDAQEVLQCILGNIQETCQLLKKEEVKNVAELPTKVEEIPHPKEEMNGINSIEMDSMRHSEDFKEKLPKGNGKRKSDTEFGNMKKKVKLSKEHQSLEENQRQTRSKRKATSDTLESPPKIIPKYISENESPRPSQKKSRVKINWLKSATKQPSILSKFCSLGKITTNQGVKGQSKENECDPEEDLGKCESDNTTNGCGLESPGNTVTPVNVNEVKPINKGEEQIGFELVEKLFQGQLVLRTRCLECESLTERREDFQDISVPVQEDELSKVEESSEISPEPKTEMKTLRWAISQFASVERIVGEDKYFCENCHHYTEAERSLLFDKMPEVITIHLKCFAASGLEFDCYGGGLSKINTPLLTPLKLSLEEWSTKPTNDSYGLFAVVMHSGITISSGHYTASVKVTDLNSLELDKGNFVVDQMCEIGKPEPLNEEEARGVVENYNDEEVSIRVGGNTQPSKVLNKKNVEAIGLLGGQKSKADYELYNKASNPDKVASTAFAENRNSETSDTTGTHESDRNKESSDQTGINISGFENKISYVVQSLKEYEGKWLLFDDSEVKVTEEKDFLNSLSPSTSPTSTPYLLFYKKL
Chain of USP1-UAF1 (Q8TAF3 whole entry partner): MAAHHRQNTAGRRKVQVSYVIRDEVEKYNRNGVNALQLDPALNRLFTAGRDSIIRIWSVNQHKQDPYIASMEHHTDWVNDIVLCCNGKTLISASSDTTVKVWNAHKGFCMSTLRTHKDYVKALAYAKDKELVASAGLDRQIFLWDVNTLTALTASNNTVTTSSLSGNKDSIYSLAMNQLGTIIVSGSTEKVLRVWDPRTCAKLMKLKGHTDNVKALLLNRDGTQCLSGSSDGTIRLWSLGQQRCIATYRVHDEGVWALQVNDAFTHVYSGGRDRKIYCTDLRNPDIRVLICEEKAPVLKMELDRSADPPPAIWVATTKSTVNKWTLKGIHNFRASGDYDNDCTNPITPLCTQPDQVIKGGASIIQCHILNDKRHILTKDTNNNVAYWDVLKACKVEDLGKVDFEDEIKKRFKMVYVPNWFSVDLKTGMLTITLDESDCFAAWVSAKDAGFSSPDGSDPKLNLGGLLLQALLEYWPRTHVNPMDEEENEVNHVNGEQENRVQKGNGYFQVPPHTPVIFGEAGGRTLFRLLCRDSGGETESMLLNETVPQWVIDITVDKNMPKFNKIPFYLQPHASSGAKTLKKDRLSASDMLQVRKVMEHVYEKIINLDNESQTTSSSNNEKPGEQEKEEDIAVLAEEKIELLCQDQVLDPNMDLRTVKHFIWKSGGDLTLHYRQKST

Usually IC50 stands for the concentration that inhibits the measured activity by half. Take `COc1ncnc(C2CC2)c1-c1ncc2[nH]cc([C@@](C)(O)c3ccc(-c4nc(C(F)(F)F)cn4C)cc3)c2n1` (single isomer, unassigned) [Compound 4]: the IC50 is 30 to 100 nM against USP1-UAF1, 100 to 250 nM in test [1] (viability) and 100 to 250 nM in the test on monoubiquitinated PCNA.

On to `CC(C)c1ccccc1-c1ncc2[nH]cc(C(O)c3ccc(-c4nc(C(F)(F)F)cn4C)cc3)c2n1` (centres unmarked) [Compound 1, [2-(2-isopropylphenyl)-5H-pyrrolo[3,2-d]pyrimidin-7-yl]-[4-[1-methyl-4-(trifluoromethyl)imidazol-2-yl]phenyl]methanol], for which the IC50 on USP1-UAF1 was 30 to 100 nM; in test [1] (setting [3]), under 100 nM; in test [2], at least 10000 nM; with monoubiquitinated PCNA (Homo sapiens) it was under 100 nM.

Turning to `CC(C)n1cc(C(F)(F)F)nc1-c1ccc(C(O)c2c[nH]c3cnc(-c4c(OC(F)F)ncnc4C4CC4)nc23)cc1` (centres unmarked) [Compound 92], the IC50 is 30 to 100 nM on USP1-UAF1, under 100 nM in test [1] (setting [3]) and under 100 nM in the test on monoubiquitinated PCNA (Homo sapiens). The “HCC 1954 IC50 rel IC50” value in test [2] is reported as “dd”.

In the case of `COc1ncnc(C2CC2)c1-c1ncc2c(n1)c(Cc1ccc(-c3nc(C(F)(F)F)cn3C)cc1)nn2CC(F)(F)F` [Compound 190, 5-(4-cyclopropyl-6-methoxy-pyrimidin-5-yl)-3-[[4-[1-methyl-4-(trifluoromethyl)imidazol-2-yl]phenyl]methyl]-1-(2,2,2-trifluoroethyl)pyrazolo[4,3-d]pyrimidine], the IC50 at USP1-UAF1 is 30 to 100 nM; in test [1] (setting [3]) it was under 100 nM; in test [2] it was at least 10000 nM; in the test with monoubiquitinated PCNA (Homo sapiens), under 100 nM.

`CC(C)c1ccccc1-c1ncc2[nH]cc(Oc3ccc(-c4nc(C(F)(F)F)cn4C)cc3)c2n1` [Compound 2, 2-(2-isopropylphenyl)-7-[4-[1-methyl-4-(trifluoromethyl)imidazol-2-yl]phenoxy]-5H-pyrrolo[3,2-d]pyrimidine]: the IC50 against USP1-UAF1 is 30 to 100 nM; in test [1] (setting [3]), 100 to 250 nM; in test [2] it was at least 10000 nM; in the test on monoubiquitinated PCNA (Homo sapiens), under 100 nM.

In the case of `Cn1cc(C(F)(F)F)nc1-c1ccc(Cc2c[nH]c3cnc(-c4c(Cl)ccnc4C4CC4)nc23)cc1` [Compound 150, 2-(4-chloro-2-cyclopropylpyridin-3-yl)-7-(4-(1-methyl-4-(trifluoromethyl)-1H-imidazol-2-yl)benzyl)-5H-pyrrolo[3,2-d]pyrimidine], the IC50 on USP1-UAF1 was under 30 nM; in test [1] (setting [3]), under 100 nM; in test [2] it was 250 to 10000 nM; with monoubiquitinated PCNA (Homo sapiens), under 100 nM.

Take `COc1ncnc(C2CC2)c1-c1ncc2[nH]nc(Cc3cc(F)c(-c4nc(C(F)(F)F)cn4C)c(F)c3)c2n1` [Compound 171, 5-(4-cyclopropyl-6-methoxy-pyrimidin-5-yl)-3-[[3,5-difluoro-4-[1-methyl-4-(trifluoromethyl)imidazol-2-yl]phenyl]methyl]-1H-pyrazolo[4,3-d]pyrimidine]: the half-inhibitory concentration (IC50) at USP1-UAF1 was under 30 nM; in test [1] (setting [3]), under 100 nM; in test [2] it was at least 10000 nM; in the test with monoubiquitinated PCNA (Homo sapiens) it was under 100 nM.

On to `COc1ncnc(C2CC2)c1-c1ncc2[nH]c(CN(C)C)c(Cc3ccc(-c4nc(C(F)(F)F)cn4C)cc3)c2n1` [Compound 176, 1-[2-(4-cyclopropyl-6-methoxy-pyrimidin-5-yl)-7-[[4-[1-methyl-4-(trifluoromethyl)imidazol-2-yl]phenyl]methyl]-5H-pyrrolo[3,2-d]pyrimidin-6-yl]-N,N-dimethyl-methanamine], for which the IC50 was 30 to 100 nM at USP1-UAF1, under 100 nM in test [1] (setting [3]), at least 10000 nM in test [2] and under 100 nM in the test on monoubiquitinated PCNA (Homo sapiens).

With `CC(C)n1cc(C(F)(F)F)nc1-c1ccc(Cc2n[nH]c3cnc(-c4c(OC(F)F)ncnc4C4CC4)nc23)cc1` [Compound 137, 5-(4-cyclopropyl-6-(difluoromethoxy)pyrimidin-5-yl)-3-(4-(1-isopropyl-4-(trifluoromethyl)-1H-imidazol-2-yl)benzyl)-1H-pyrazolo[4,3-d]pyrimidine], the IC50 against USP1-UAF1 is under 30 nM; in test [1] (setting [3]), under 100 nM; in test [2] it was 250 to 10000 nM; with monoubiquitinated PCNA (Homo sapiens) it was under 100 nM.

With `Cn1cc(C(F)(F)F)nc1-c1ccc(Cc2n[nH]c3cnc(-c4c(C5CC5)ncnc4C4CC4)nc23)cc1` [Compound 183, 5-(4,6-dicyclopropylpyrimidin-5-yl)-3-[[4-[1-methyl-4-(trifluoromethyl)imidazol-2-yl]phenyl]methyl]-1H-pyrazolo[4,3-d]pyrimidine], the half-maximal inhibitory concentration (IC50) at USP1-UAF1 is under 30 nM; in test [1] (setting [3]), under 100 nM; in test [2], at least 10000 nM; with monoubiquitinated PCNA (Homo sapiens) it was under 100 nM.

For `COc1ncnc(C2CC2)c1-c1nc(OC)c2[nH]cc(Cc3ccc(-c4nc(C(F)(F)F)cn4C)cc3)c2n1` [Compound 160], the IC50 against USP1-UAF1 lay within 100 to 10000 nM; in test [1] (setting [3]) it was 100 to 250 nM; in test [2] it was 250 to 10000 nM; in the test with monoubiquitinated PCNA (Homo sapiens) it was 250 to 10000 nM.

Turning to `COc1ncnc(C2CC2)c1-c1ncc2[nH]nc(Cc3ccc(-c4nc(C(F)(F)F)cn4C)cc3)c2n1` [Compound 5, 5-(4-cyclopropyl-6-methoxy-pyrimidin-5-yl)-3-[[4-[1-methyl-4-(trifluoromethyl)imidazol-2-yl]phenyl]methyl]-1H-pyrazolo[4,3-d]pyrimidine], the IC50 against USP1-UAF1 is under 30 nM; in test [1] (setting [3]), under 100 nM; in the test on monoubiquitinated PCNA (Homo sapiens), under 100 nM.

Take `COc1ncnc(C2CC2)c1-c1nc(C(F)(F)F)c2[nH]nc(Cc3ccc(-c4nc(C(F)(F)F)cn4C)cc3)c2n1` [Compound 114, 5-(4-cyclopropyl-6-methoxy-pyrimidin-5-yl)-3-[[4-[1-methyl-4-(trifluoromethyl)imidazol-2-yl]phenyl]methyl]-7-(trifluoromethyl)-1H-pyrazolo[4,3-d]pyrimidine]: the IC50 on USP1-UAF1 was under 30 nM; in test [1] (setting [3]) it was under 100 nM; in test [2], at least 10000 nM; in the test with monoubiquitinated PCNA (Homo sapiens), under 100 nM.

On to `COc1ncnc(C2CC2)c1-c1ncc2[nH]nc(Cc3ccc(-c4nc(C(F)(F)F)cn4C)c(C)c3)c2n1` [Compound 95, 5-(4-cyclopropyl-6-methoxy-pyrimidin-5-yl)-3-[[3-methyl-4-[1-methyl-4-(trifluoromethyl)imidazol-2-yl]phenyl]methyl]-1H-pyrazolo[4,3-d]pyrimidine], for which the IC50 at USP1-UAF1 is under 30 nM; in test [1] (setting [3]), under 100 nM; in test [2], at least 10000 nM; with monoubiquitinated PCNA (Homo sapiens) it was under 100 nM.

In the case of `COc1ncnc(C2CC2)c1-c1ncc2c(n1)c(Cc1ccc(-c3nc(C(F)(F)F)cn3C3CC3)cc1)cn2C` [Compound 25], the IC50 is under 30 nM against USP1-UAF1 and under 100 nM in the test with monoubiquitinated PCNA (Homo sapiens).

In the case of `COc1ncnc(C2CC2)c1-c1ncc2nn(C)c(Cc3ccc(-c4nc(C(F)(F)F)cn4C)cc3)c2n1` [Compound 24, 5-(4-cyclopropyl-6-methoxy-pyrimidin-5-yl)-2-methyl-3-[[4-[1-methyl-4-(trifluoromethyl)imidazol-2-yl]phenyl]methyl]pyrazolo[4,3-d]pyrimidine], the IC50 in test [1] (setting [3]) is 250 to 10000 nM; in test [2] it was at least 10000 nM; with monoubiquitinated PCNA (Homo sapiens), 100 to 250 nM.

`COc1ncnc(C2CC2)c1-c1ncc2c(n1)c(Cc1ccc(-c3nc(C(F)(F)F)cn3C)cc1)nn2C` [Compound 26, 5-(4-cyclopropyl-6-methoxy-pyrimidin-5-yl)-1-methyl-3-[[4-[1-methyl-4-(trifluoromethyl)imidazol-2-yl]phenyl]methyl]pyrazolo[4,3-d]pyrimidine]: the IC50 was under 100 nM in test [1] (setting [3]), at least 10000 nM in test [2] and under 100 nM in the test with monoubiquitinated PCNA (Homo sapiens).

Consider `COc1ncnc(C2CC2)c1-c1ncc2[nH]cc([C@@](C)(O)c3ccc(-c4nc(C(F)(F)F)cn4C)cc3)c2n1` (single isomer, unassigned) [Compound 76], for which the results for the IC50 (at USP1-UAF1; in test [1] (viability); in the test with monoubiquitinated PCNA (Homo sapiens)) were 100 to 10000 nM, 250 to 10000 nM and 100 to 250 nM, respectively.

`Cn1cc(C(F)(F)F)nc1-c1ccc(Cc2c[nH]c3cnc(-c4c(C(F)(F)F)cnn4C)nc23)cc1` [Compound 179, 7-[[4-[1-methyl-4-(trifluoromethyl)imidazol-2-yl]phenyl]methyl]-2-[2-methyl-4-(trifluoromethyl)pyrazol-3-yl]-5H-pyrrolo[3,2-d]pyrimidine]: the IC50 was under 100 nM in test [1] (setting [3]), 250 to 10000 nM in test [2] and under 100 nM in the test on monoubiquitinated PCNA (Homo sapiens).

As to `COc1ncnc(C2CC2)c1-c1ncc2[nH]cc(Cc3ccc(-c4nc(C(F)(F)F)cn4C(C)C)cc3)c2n1` [Compound 54, 2-(4-cyclopropyl-6-methoxy-pyrimidin-5-yl)-7-[[4-[1-isopropyl-4-(trifluoromethyl)imidazol-2-yl]phenyl]methyl]-5H-pyrrolo[3,2-d]pyrimidine], the IC50 is under 30 nM at USP1-UAF1, under 100 nM in test [1] (setting [3]) and under 100 nM in the test on monoubiquitinated PCNA (Homo sapiens).

`Cn1cc(C(F)(F)F)nc1-c1ccc(C(C)(O)c2c[nH]c3cnc(-c4cccnc4OCC(F)(F)F)nc23)cc1` (single isomer, unassigned) [Compound 22]: the IC50 fell in the range of 100 to 10000 nM at USP1-UAF1, 100 to 250 nM in test [1] (setting [3]) and 250 to 10000 nM in test [2].

As to `Cn1cc(C(F)(F)F)nc1-c1ccc(Cc2c[nH]c3cnc(-c4cccnc4NC4CC4)nc23)cc1` [Compound 44], the IC50 against USP1-UAF1 is 100 to 10000 nM; in test [1] (setting [3]), 250 to 10000 nM; in test [2], 250 to 10000 nM.

As to `Cn1cc(C(F)(F)F)nc1-c1ccc(C(O)c2c[nH]c3cnc(-c4cccnc4C4CC4)cc23)cc1` (centres unmarked) [Compound 30, [5-(2-cyclopropylpyridin-3-yl)-1H-pyrrolo[2,3-c]pyridin-3-yl]([4-[1-methyl-4-(trifluoromethyl)imidazol-2-yl]phenyl])methanol], the IC50 against USP1-UAF1 is 100 to 10000 nM; in test [1] (setting [3]), at least 10000 nM; in test [2], at least 10000 nM.
